Reference: patent publication US20170088546A1 (priority 2014, published 2017)
Where two headings read alike, the source gives them in different places.

Tests used:
Smurf-1 = Smurf-1 (Homo sapiens, UniProt Q9HCE7); test: biochemical; format: biochemical
Text: (§1) To determine the HECT E3 ligase selectivity of the compounds, a panel of biochemical HECT E3 ligase autoubiquitinylation assays was employed (Smurf-1, Smurf-2, WWP1, WWP2, ITCH, Nedd4, Nedd4L and E6AP). The conjugation of ubiquitin to a protein substrate is a multistep process. In an initial ATP-requiring step, a thioester bond is formed between the carboxyl terminus of ubiquitin and an internal cystein residue of the ubiquitin-activating enzyme (E1). Activated ubiquitin is then transferred to a specific cystein residue of an ubiquitin-conjugating enzyme (E2). E2s donate ubiquitin to a HECT E3 ligase (E3) from which it is transferred to the substrate protein. HECT E3 ligases can auto-ubiquitinylate. This event is detected in the TR-FRET (Time-Resolved Fluorescence Resonance Energy Transfer) assay used in this panel. The reaction mix contains E1, E2, tagged-E3, biotin-conjugated ubiquitin, the compound and ATP in a suitable buffer and is incubated for 45 minutes to allow auto-ubiquitinylation of the E3 ligase. To measure the extent of ubiquitinylated E3 ligase by TR-FRET, the donor fluorophore Europium cryptate (Eu3+ cryptate), conjugated to streptavidin which subsequently binds to biotinylated ubiquitin, and the modified allophycocyanin XL665 (HTRF® primary acceptor fluorophore) coupled to a tag-specific antibody (HA, His or GST), which recognizes the respective E3 ligase fusion proteins, are added after the reaction is complete. When these two fluorophores are brought together by a biomolecular interaction (in this case ubiquitinylation of the E3 ligase), a portion of the energy captured by the Cryptate during excitation is released through fluorescence emission at 620 nm, while the remaining energy is transferred to XL665. This energy is then released by XL665 as specific fluorescence at 665 nm. Light at 665 nm is emitted only through FRET with Europium.
(§2) Test and reference compounds are prepared at 180×[final] in 90% DMSO, and diluted 1:3 in 90% DMSO.
(§3) For the biochemical assay panel, 50 nl of the test compounds, reference compounds and buffer/DMSO control are transferred to the respective wells of a 384-well white GREINER “SMALL VOLUME” PS plate. The assay panel is run at room temperature on a Biomek FX liquid handling workstation. To the assay plates containing 50 nl compound or control solutions in 90% DMSO, 4.5 ul of E3 ligase solution were added per well, followed by 4.5 ul of the pre-incubated E1/E2/Ub mix or the pre-diluted ubiquitin (LOW control). Plates are shaken vigorously after each addition. In this assay the compound concentrations range from 3 nM to 10 uM in an 8-point dose-response curve.
(§4) After an incubation time of 45 min in the dark, the plates are transferred into the Pherastar fluorescence reader to measure the TR-FRET signal.

Smurf-2 = Smurf-2 (Homo sapiens, UniProt Q9HAU4); test: HECT E3 ligase autoubiquitinylation TR-FRET assay, Smurf-2; format: biochemical
Text: as §1, §2, §3, §4

[1] = biochemical autoubiquitinylation TR-FRET, 45 min incubation, 8-point dose-response 3 nM to 10 uM
[2] = biochemical autoubiquitinylation TR-FRET, 45 min incubation, 8-point dose-response 3 nM to 10 uM, read-out: Smurf-2/IC50

Sequence of Smurf-1 (Q9HCE7 whole entry): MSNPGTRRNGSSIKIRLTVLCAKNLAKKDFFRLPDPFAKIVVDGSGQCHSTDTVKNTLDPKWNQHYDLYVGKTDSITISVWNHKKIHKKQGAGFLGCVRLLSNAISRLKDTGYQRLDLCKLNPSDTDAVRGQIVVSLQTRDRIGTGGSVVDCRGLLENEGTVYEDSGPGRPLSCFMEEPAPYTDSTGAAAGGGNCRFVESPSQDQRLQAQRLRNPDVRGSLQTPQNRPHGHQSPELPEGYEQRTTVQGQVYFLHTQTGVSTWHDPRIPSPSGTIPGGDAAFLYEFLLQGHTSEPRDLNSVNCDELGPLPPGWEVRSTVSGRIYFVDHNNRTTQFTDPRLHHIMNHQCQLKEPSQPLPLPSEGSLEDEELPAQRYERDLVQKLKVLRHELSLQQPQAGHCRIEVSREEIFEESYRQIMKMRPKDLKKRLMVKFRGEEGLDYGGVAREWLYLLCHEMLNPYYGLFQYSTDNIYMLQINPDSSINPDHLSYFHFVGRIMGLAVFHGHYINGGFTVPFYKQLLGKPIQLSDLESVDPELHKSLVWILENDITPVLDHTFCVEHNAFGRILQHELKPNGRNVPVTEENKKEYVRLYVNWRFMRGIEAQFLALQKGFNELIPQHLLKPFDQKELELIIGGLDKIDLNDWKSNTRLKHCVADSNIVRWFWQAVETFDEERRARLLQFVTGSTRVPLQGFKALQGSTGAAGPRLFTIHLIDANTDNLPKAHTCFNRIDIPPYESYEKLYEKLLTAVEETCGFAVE
Sequence of Smurf-2 (Q9HAU4 whole entry, species assumed): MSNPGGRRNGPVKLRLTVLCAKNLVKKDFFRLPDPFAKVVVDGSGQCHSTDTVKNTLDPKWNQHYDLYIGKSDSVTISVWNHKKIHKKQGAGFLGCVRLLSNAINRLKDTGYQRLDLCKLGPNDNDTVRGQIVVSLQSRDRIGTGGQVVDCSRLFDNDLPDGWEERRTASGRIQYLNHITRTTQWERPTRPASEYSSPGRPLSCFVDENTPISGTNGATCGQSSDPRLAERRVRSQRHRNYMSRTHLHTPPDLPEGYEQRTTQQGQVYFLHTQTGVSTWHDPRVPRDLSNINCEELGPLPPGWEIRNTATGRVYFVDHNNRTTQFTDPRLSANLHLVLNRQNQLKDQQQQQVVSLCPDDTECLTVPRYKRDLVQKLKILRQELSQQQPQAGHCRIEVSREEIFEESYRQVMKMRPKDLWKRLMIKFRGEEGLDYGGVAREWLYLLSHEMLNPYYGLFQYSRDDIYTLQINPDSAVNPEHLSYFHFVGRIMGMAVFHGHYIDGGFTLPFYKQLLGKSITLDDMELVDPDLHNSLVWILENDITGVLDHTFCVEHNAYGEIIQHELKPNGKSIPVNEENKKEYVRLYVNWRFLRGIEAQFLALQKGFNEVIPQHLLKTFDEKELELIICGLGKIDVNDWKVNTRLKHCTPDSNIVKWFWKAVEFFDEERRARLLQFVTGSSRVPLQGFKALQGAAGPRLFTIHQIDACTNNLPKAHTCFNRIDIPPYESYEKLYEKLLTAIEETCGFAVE

SMILES	IC50 (Smurf-1; [1])	IC50 (Smurf-2; [2])	IC50 (Smurf-2)	IC50 (Smurf-1)
Cc1c(NC(=O)c2noc3c2CCCc2cc(OC(F)(F)F)ccc2-3)c(=O)n(-c2ccccc2F)n1C [Example 3, N-(2-(2-Fluorophenyl)-1,5-dimethyl-3-oxo-2,3-dihydro-1H-pyrazol-4-yl)-8-(trifluoromethoxy)-5,6-dihydro-4H-benzo[3,4]cyclohepta[1,2-d]isoxazole-3-carboxamide]	17 nM	830 nM		
Cc1c(NC(=O)c2noc3c2CCSc2cc(OC(F)(F)F)ccc2-3)c(=O)n(-c2ccccc2F)n1C [Example 46, N-(2-(2-fluorophenyl)-1,5-dimethyl-3-oxo-2,3-dihydro-1H-pyrazol-4-yl)-8-(trifluoromethoxy)-4,5-dihydrobenzo[6,7]thiepino[4,5-d]isoxazole-3-carboxamide]	31.5 nM		> 10000 nM	
COc1ccc2c(c1)CCCc1c(C(=O)Nc3c(C(F)(F)F)n(C)n(-c4ccccc4)c3=O)noc1-2 [Example 38, 8-methoxy-N-(1-methyl-3-oxo-2-phenyl-5-(trifluoromethyl)-2,3-dihydro-1H-pyrazol-4-yl)-5,6-dihydro-4H-benzo[3,4]cyclohepta[1,2-d]isoxazole-3-carboxamide]	865 nM		> 10000 nM	
COc1ccc2c(c1)OCCCc1c(C(=O)Nc3c(C)n(C)n(C4CCCCC4)c3=O)noc1-2 [Example 54, N-(2-cyclohexyl-1,5-dimethyl-3-oxo-2,3-dihydro-1H-pyrazol-4-yl)-9-methoxy-5,6-dihydro-4H-benzo[2,3]oxocino[5,4-d]isoxazole-3-carboxamide]			> 10000 nM	192 nM
Cc1c(NC(=O)c2noc3c2CCCc2cc(OC(F)(F)F)ccc2-3)c(=O)n(-c2ccccc2)n1C [Example 39, N-(1,5-dimethyl-3-oxo-2-phenyl-2,3-dihydro-1H-pyrazol-4-yl)-8-(trifluoromethoxy)-5,6-dihydro-4H-benzo[3,4]cyclohepta[1,2-d]isoxazole-3-carboxamide]	200 nM	5550 nM		
COc1ccc2c(c1)CCCc1c(C(=O)Nc3c(C)n(C)n(-c4ccccc4Cl)c3=O)noc1-2 [Example 27, N-(2-(2-chlorophenyl)-1,5-dimethyl-3-oxo-2,3-dihydro-1H-pyrazol-4-yl)-8-methoxy-5,6-dihydro-4H-benzo[3,4]cyclohepta[1,2-d]isoxazole-3-carboxamide]	125 nM	5800 nM		
Cc1c(NC(=O)c2noc3c2CC2C(c4ccccc4-3)C2(Cl)Cl)c(=O)n(-c2ccccc2)n1C (stereo not shown) [Example 50, 9,9-dichloro-N-(1,5-dimethyl-3-oxo-2-phenyl-2,3-dihydro-1H-pyrazol-4-yl)-8,8a,9,9a-tetrahydrobenzo[3,4]cyclopropa[5,6]cyclohepta[1,2-d]isoxazole-7-carboxamide]	462 nM		> 10000 nM	
Cc1c(NC(=O)c2noc3c2CCc2cc(CC(C)C)ccc2-3)c(=O)n(-c2ccccc2)n1C [Example 1, N-(1,5-Dimethyl-3-oxo-2-phenyl-2,3-dihydro-1H-pyrazol-4-yl)-7-isobutyl-4,5-dihydronaphtho[2,1-d]isoxazole-3-carboxamide]	240 nM	5600 nM		
